Measurements from ChEMBL document CHEMBL2150992, “Synthesis of quinoline derivatives for fluorescent imaging certain bacteria” (Bioorg Med Chem Lett, 2012).
Active and inactive are the calls of the source. The calls are words filed in the database; no cut-off is given here.

Legend:
Assay type in all cases: functional, organism-based
Escherichia coli [1] = assay: Binding affinity to Escherichia coli at 0.0781 mM after 1 day by fluorescence microscopy
Staphylococcus aureus [2] = assay: Binding affinity to Staphylococcus aureus at 0.0781 mM after 1 day by fluorescence microscopy
Bacillus subtilis [3] = assay: Binding affinity to Bacillus subtilis at 0.0781 mM after 1 day by fluorescence microscopy
Staphylococcus aureus [4] = assay: Binding affinity to Staphylococcus aureus at 0.0781 mM after 10 mins by fluorescence microscopy
Escherichia coli [5] = assay: Binding affinity to Escherichia coli at 0.0781 mM after 10 mins by fluorescence microscopy
Bacillus subtilis [6] = assay: Binding affinity to Bacillus subtilis at 0.0781 mM after 10 mins by fluorescence microscopy

| SMILES | Activity (Bacillus subtilis [3]) | Activity (Bacillus subtilis [6]) | Activity (Escherichia coli [1]) | Activity (Staphylococcus aureus [2]) | Activity (Staphylococcus aureus [4]) | Activity (Escherichia coli [5]) |
| --- | --- | --- | --- | --- | --- | --- |
| N#Cc1ccc2nc(-c3cc4ccccc4c4ccccc34)cc(N3CCCC3=O)c2c1 | Active | Active | Active | Active | Active | Active |
| CCCCc1ccc2c(c1)[C@@H](N1CCCC1=O)C[C@@H](c1cc3ccccc3c3ccccc13)N2 (relative stereo) | – | inactive | – | – | Active | inactive |
| CCCCc1ccc2nc(-c3cc4ccccc4c4ccccc34)cc(N3CCCC3=O)c2c1 | Active | Active | Active | Active | Active | inactive |
| O=C1CCCN1c1cc(-c2cc3ccccc3c3ccccc23)nc2ccccc12 | Active | Active | Active | Active | Active | Active |
| c1ccc2c(c1)N[C@H](c1cc3ccccc3c3ccccc13)C1CCCOC21 (stereo not given in full) | – | inactive | – | – | Active | inactive |
| COc1ccc2c(c1)[C@@H](N1CCCC1=O)C[C@@H](c1cc3ccccc3c3ccccc13)N2 (relative stereo) | – | Active | – | – | Active | Active |
| O=C1CCCN1c1cc(-c2cc3ccccc3c3ccccc23)nc2ccc(Br)cc12 | Active | Active | Active | Active | Active | inactive |
| COc1ccc2nc(-c3cc4ccccc4c4ccccc34)cc(N3CCCC3=O)c2c1 | Active | Active | Active | Active | inactive | Active |
| c1ccc2c(c1)N[C@@H](c1cc3ccccc3c3ccccc13)C1CCCOC21 (stereo not given in full) | – | inactive | – | – | Active | inactive |
| O=C1CCCN1c1cc(-c2cc3ccccc3c3ccccc23)nc2ccc(Cl)cc12 | Active | Active | Active | Active | Active | Active |

The next lines start with results.

| Activity (Bacillus subtilis [3]) | Activity (Bacillus subtilis [6]) | SMILES | Activity (Escherichia coli [1]) | Activity (Staphylococcus aureus [2]) | Activity (Staphylococcus aureus [4]) | Activity (Escherichia coli [5]) |
| --- | --- | --- | --- | --- | --- | --- |
| – | Active | O=C1CCCN1[C@H]1C[C@@H](c2cc3ccccc3c3ccccc23)Nc2ccc(Cl)cc21 (relative stereo) | – | – | inactive | inactive |
| – | inactive | O=C1CCCN1[C@H]1C[C@@H](c2cc3ccccc3c3ccccc23)Nc2ccc(Br)cc21 (relative stereo) | – | – | inactive | Active |
| – | Active | O=C1CCCN1[C@H]1C[C@@H](c2cc3ccccc3c3ccccc23)Nc2ccccc21 (relative stereo) | – | – | Active | inactive |
| – | Active | N#Cc1ccc2c(c1)[C@@H](N1CCCC1=O)C[C@@H](c1cc3ccccc3c3ccccc13)N2 (mixture of isomers) | – | – | Active | inactive |
